Experimental data from patent US4877734A, “Microbiologically produced α-acetylamino cinnamic acid acylase, method of its production and its use” (Degussa Aktiengesellschaft and Gesellschaft fur …, priority 1986, dated 1989).
In brackets after ≈: the same amount, converted by molar mass.

How the values were obtained:
ACA acylase [1] = assay: Influences of inhibitors and activators on ACA acylase activity (standard conditions, coupled test with D-2-hydroxy-4-methylpentanoic acid dehydrogenase); type: biochemical, Brevibacterium spec.
Experimental: 0.1 M phosphate buffer for pH 7.5
(§1) limiting amounts of ACA acylase.
(Deviation: The tests with bivalent metal ions were performed in 0.1M tris/HCl buffer for pH 8.0.)

ACA acylase [2] = assay: Substrate specificity, test 3: peptides and N-acyl phenylalanines, amino acids detected with amino acid analyzer; type: biochemical, Brevibacterium spec.; settings: for Activity / Relative Activity: 50 mM substrate, pH 7.5, 30° C.; for Activity: 0.1 U/ml ACA acylase; for Relative Activity: relative to α-acetylamino cinnamic acid = 100%
Experimental: Other substrates used were N-acetyl-L-phenylalanine, N-methoxycarbonyl-D,L-phenylalanine and various peptides. The test batch contained in these instances:
0.1 M potassium phosphate buffer (pH 7.5)
(§2) The batches (1 ml altogether) were agitated (30° C.) and samples were taken at different times. The amino acids produced by the acylase action were quantitatively detected with the aid of an amino acid analyzer. The activity of the enzymes is also indicated in this instance in international units-an activity of 1 U corresponds to the formation of 1 μmole amino acid per minute. The activities measured with the 3 test batches are listed in column 2 of Table 6 in mU/ml. For the determination of the relative activity (column 3 of Table 6), the activity of the α-acetylamino cinnamic acid as substrate was set equal to 100%.

[3] = at 25° C.; cited from earlier work
ACA acylase [4] = assay: Substrate specificity, test 2: α-acetylamino acrylic acid, photometric test coupled with L-alanine dehydrogenase; type: biochemical, Brevibacterium spec.
Experimental: 2. Test with α-acetylamino acrylic acid:
50 mM α-acetyl amino acrylic acid
1 U/ml L--alanine dehydrogenase
The activity was measured in an analogous manner (by a photometric test at 340 nm) (1 μmole NADH decrease would correspond to 1 μmole formation of alanine).
as §2

ACA acylase [5] = assay: Dependency of ACA acylase activity on substrate concentration, coupled with L-phenylalanine dehydrogenase (pH 8.5); type: biochemical, Brevibacterium spec.
Experimental: 0.7 mM ammonium chloride/ammonia buffer (pH 8.5)
0.5 U L--phenylalanine dehydrogenase
as §1
The α-acetylamino cinnamic acid concentration was varied within a range of 1-36 mM. […] The KM value for α-acetylamino cinnamic acid is 3.9 mM.

ACA acylase [6] = assay: Substrate specificity, test 1: α-acetylamino cinnamic acid, photometric test coupled with L-phenylalanine dehydrogenase; type: biochemical, Brevibacterium spec.
Experimental: In a series of parallel batches, the substrate α-acetylamino cinnamic acid was replaced by other compounds and tested to see to what extent the enzyme accepts other substrates. The following test batches were used depending on the substrate used:
1. Test with α-acetylamino cinnamic acid as substrate:
50 mM α-acetylamino cinnamic acid
The activity was measured (at 340 nm) by a photometric test as described in Example 1.
as §2

ACA acylase [7] = assay: Dependency of ACA acylase activity on substrate concentration, coupled with D-2-hydroxy-4-methylpentanoic acid dehydrogenase (pH 7.5); type: biochemical, Brevibacterium spec.
Experimental: 0.1 M phosphate buffer (pH 7.5)
0.8 U D--2-hydroxy-4-methylpentanoic acid dehydrogenase
as §1
The α-acetylamino cinnamic acid concentration was varied within a range of 0.1-18 mM. […] The KM value for α-acetylamino cinnamic acid is at 0.45 mM.

[8] = bivalent metal ion, concentration 1 nM (so in the source), 0.1M tris/HCl buffer pH 8.0
[9] = reagent concentration 1 nM (so in the source), 0.1 M phosphate buffer pH 7.5, 30° C.
[10] = reagent concentration 10 nM (so in the source), 0.1 M phosphate buffer pH 7.5, 30° C.
[11] = bivalent metal ion, concentration 10 nM (so in the source), 0.1M tris/HCl buffer pH 8.0

## [Cl][Mn][Cl] [MnCl2]
ACA acylase [1]; [8]
  Residual Activity: 63%

## L--leu-L--tyr
ACA acylase [2]
  Activity: 109 mU.ml^-1
  Relative Activity: 87%

## L--asp-L--phe
ACA acylase [2]
  Activity: 38 mU.ml^-1
  Relative Activity: 30%

## L--leu-L--trp
ACA acylase [2]
  Activity: 67 mU.ml^-1
  Relative Activity: 54%

## COC(=O)NC(Cc1ccccc1)C(=O)O (racemic) [N--methoxycarbonyl D,L--phenylalanine, N-methoxycarbonyl-D,L-phenylalanine]
ACA acylase [2]
  Activity: 0 mU.ml^-1
  Relative Activity: 0%

## L--ser-L--phe
ACA acylase [2]
  Activity: 36 mU.ml^-1
  Relative Activity: 29%

## [Cl][Hg].[Cl][Hg] [Hg2 Cl2]
ACA acylase [1]; summary of properties
  Influence on the enzyme (in words): inhibiting action

## p-mercuric benzoate
ACA acylase [1]; [9]
  Residual Activity: 41%
ACA acylase [1]; [10]
  Residual Activity: 3%
ACA acylase [1]; summary of properties
  Influence on the enzyme (in words): inhibiting action

## CC(=O)N[C@@H](Cc1ccccc1)C(=O)O [N--acetyl-L--phenylalanine, N-acetyl-L-phenylalanine]
ACA acylase [2]
  Activity: 0 mU.ml^-1
  Relative Activity: 0%
ACA acylase [2]; summary of properties
  Substrate specificity: hydrolysis by the enzyme (in words): not

## [Cl][Cd][Cl] [CdCl2]
ACA acylase [1]; [8]
  Residual Activity: 72%
ACA acylase [1]; [11]
  Residual Activity: 29%
ACA acylase [1]; summary of properties
  Influence on the enzyme (in words): inhibiting action

## N[C@@H](Cc1ccccc1)C(=O)O [Phe, L-phenylalanine]
[3]
  solubility in H2 O: 180000 µM (≈ 29.7 mg/mL)

## OCCS [2-mercaptoethanol]
ACA acylase [1]; [9]
  Residual Activity: 100%
ACA acylase [1]; [10]
  Residual Activity: 100%

## L--ala-L--his
ACA acylase [2]
  Activity: 43 mU.ml^-1
  Relative Activity: 34%

## L--ala-L--tyr
ACA acylase [2]
  Activity: 78 mU.ml^-1
  Relative Activity: 62%

## C=C(NC(C)=O)C(=O)O [α-acetylamino acrylic acid]
ACA acylase [4]; 50 mM substrate, 0.1 U/ml ACA acylase, pH 8.0
  Activity: 0 mU.ml^-1
ACA acylase [4]; relative to α-acetylamino cinnamic acid = 100%, 50 mM substrate, pH 8.0
  Relative Activity: 0%
ACA acylase [4]; summary of properties
  Substrate specificity: hydrolysis by the enzyme (in words): not

## O=C(O)CN(CCN(CC(=O)O)CC(=O)O)CC(=O)O [EDTA]
ACA acylase [1]; [9]
  Residual Activity: 111%
ACA acylase [1]; [10]
  Residual Activity: 102%

## O[C@H](CS)[C@H](O)CS (racemic) [dithiothreitol]
ACA acylase [1]; addition of 1 mmole
  Influence on the enzyme (in words): activates
ACA acylase [1]; [9]
  Residual Activity: 146%
ACA acylase [1]; [10]
  Residual Activity: 123%

## gly-L--phe
ACA acylase [2]
  Activity: 40 mU.ml^-1
  Relative Activity: 32%

## [Cl][Ni][Cl] [NiCl2]
ACA acylase [1]; [8]
  Residual Activity: 83%
ACA acylase [1]; [11]
  Residual Activity: 53%

## gly-D-phe
ACA acylase [2]
  Activity: 0 mU.ml^-1
  Relative Activity: 0%

## CC(=O)NC(=Cc1ccccc1)C(=O)O [α-acetylamino cinnamic acid]
ACA acylase [5]; pH 8.5, coupled with L-phenylalanine dehydrogenase
  Km: 3900 µM
ACA acylase [5]; pH 8.5, concentration varied 1-36 mM
  Substrate concentration at which the optimum reaction speed is achieved: 16 mM
ACA acylase [6]; 50 mM substrate, 0.1 U/ml ACA acylase, pH 9.2
  Activity: 125 mU.ml^-1
ACA acylase [6]; summary of properties
  Substrate specificity: hydrolysis by the enzyme (in words): hydrolyzes
ACA acylase [6]; α-acetylamino cinnamic acid set equal to 100%, 50 mM substrate, pH 9.2
  Relative Activity: 100%
ACA acylase [7]; pH 7.5
  Km: 450 µM
ACA acylase [7]; pH 7.5, coupled with D-2-hydroxy-4-methylpentanoic acid dehydrogenase
  Km: 450 µM
ACA acylase [7]; pH 7.5, concentration varied 0.1-18 mM
  Substrate concentration at which the optimum reaction speed is achieved: 5 mM

## c1ccc(-c2ccccn2)nc1 [2,2-dipyridyl]
ACA acylase [1]; [9]
  Residual Activity: 97%
ACA acylase [1]; [10]
  Residual Activity: 69%

## N[C@@H](CCC(=O)N[C@@H](CS)C(=O)NCC(=O)O)C(=O)O [red. glutathione]
ACA acylase [1]; [9]
  Residual Activity: 102%
ACA acylase [1]; [10]
  Residual Activity: 81%

## [Cl-].[Cl-].[Mg+2] [MgCl2]
ACA acylase [1]; [8]
  Residual Activity: 100%
ACA acylase [1]; [11]
  Residual Activity: 100%

## gly-gly-L--phe
ACA acylase [2]
  Activity: 0 mU.ml^-1
  Relative Activity: 0%

## c1cnc2c(c1)ccc1cccnc12 [o-phenanthroline]
ACA acylase [1]; [9]
  Residual Activity: 72%
ACA acylase [1]; [10]
  Residual Activity: 45%
ACA acylase [1]; summary of properties
  Influence on the enzyme (in words): inhibiting action

## L--leu-L--phe
ACA acylase [2]
  Activity: 102 mU.ml^-1
  Relative Activity: 82%

## L--his-L--phe
ACA acylase [2]
  Activity: 44 mU.ml^-1
  Relative Activity: 35%

## [Ca+2].[Cl-].[Cl-] [CaCl2]
ACA acylase [1]; [8]
  Residual Activity: 99%
ACA acylase [1]; [11]
  Residual Activity: 99%

## L--phe-L--phe
ACA acylase [2]
  Activity: 41 mU.ml^-1
  Relative Activity: 33%

## L--ala-L--phe
ACA acylase [2]
  Activity: 105 mU.ml^-1
  Relative Activity: 84%

## L--ala-L--trp
ACA acylase [2]
  Activity: 66 mU.ml^-1
  Relative Activity: 53%

## [Cl-].[Cl-].[Zn+2] [ZnCl2]
ACA acylase [1]; [8]
  Residual Activity: 86%
ACA acylase [1]; [11]
  Residual Activity: 34%

## [Cl][Hg][Cl] [HgCl2]
ACA acylase [1]; [8]
  Residual Activity: 51%
ACA acylase [1]; [11]
  Residual Activity: 0%
